Results: PubChem BioAssay (NCI)
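Assay format: 96-well plates, 48-hour exposure. TGI denotes the concentration required for complete inhibition of growth.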

What was measured:
Assay in all cases: inhibition of tumour cell growth, NCI panel, 48 h
[1] = test system: MALME-3M melanoma
[2] = test system: MCF7 breast
[3] = test system: A549 NSCLC
[4] = test system: T-47D breast
[5] = test system: NCI-H226 lung
[6] = test system: ACHN renal
[7] = test system: EKVX NSCLC
[8] = test system: OVCAR-8 ovarian
[9] = test system: NCI/ADR-RES ovarian
[10] = test system: SK-MEL-28 melanoma
[11] = test system: BT-549 breast
[12] = test system: MDA-MB-231 breast
[13] = test system: LOX IMVI melanoma
[14] = test system: U251 CNS
[15] = test system: NCI-H460 lung
[16] = test system: RXF 393 renal
[17] = test system: HCT-15 colon
[18] = test system: SF-539 CNS
[19] = test system: OVCAR-5 ovarian
[20] = test system: HCT-116 colon
[21] = test system: NCI-H23 lung
[22] = test system: SF-295 CNS
[23] = test system: SK-MEL-2 melanoma
[24] = test system: SN12C renal
[25] = test system: KM12 colon
[26] = test system: A498 renal
[27] = test system: IGROV1 ovarian
[28] = test system: CCRF-CEM leukemia
[29] = test system: CAKI-1 renal
[30] = test system: NCI-H522 lung
[31] = test system: HCC-2998 colon
[32] = test system: SNB-75 CNS
[33] = test system: TK-10 renal
[34] = test system: SNB-19 CNS
[35] = test system: PC-3 prostate
[36] = test system: UACC-257 melanoma
[37] = test system: COLO 205 colon
[38] = test system: MDA-N
[39] = test system: 786-0 renal
[40] = test system: SW-620 colon
[41] = test system: SF-268 CNS
[42] = test system: HOP-62 NSCLC
[43] = test system: OVCAR-3 ovarian
[44] = test system: RPMI-8226 leukemia
[45] = test system: SK-OV-3 ovarian
[46] = test system: OVCAR-4 ovarian
[47] = test system: UO-31 renal
[48] = test system: MDA-MB-435
[49] = test system: M14 melanoma
[50] = test system: HOP-92 NSCLC
[51] = test system: UACC-62 melanoma
[52] = test system: HT29 colon
[53] = test system: HS 578T breast
[54] = test system: SR leukemia
[55] = test system: DU-145 prostate
[56] = test system: HL-60(TB) leukemia
[57] = test system: SK-MEL-5 melanoma
[58] = test system: K-562 leukemia
[59] = test system: MOLT-4 leukemia

SMILES: CC(C)=CC(O)C(C(O)CCC1(C)OCCO1)S(=O)(=O)c1ccccc1 (stereo unspecified)
- TGI [1]: > 100 µM
- TGI [2]: > 100 µM
- TGI [3]: > 100 µM
- TGI [4]: > 100 µM
- TGI [5]: > 100 µM
- TGI [6]: > 100 µM
- TGI [7]: > 100 µM
- TGI [8]: > 100 µM
- TGI [9]: > 100 µM
- TGI [10]: > 100 µM
- TGI [11]: > 100 µM
- TGI [12]: > 100 µM
- TGI [13]: > 100 µM
- TGI [14]: > 100 µM
- TGI [15]: > 100 µM
- TGI [16]: > 100 µM
- TGI [17]: > 100 µM
- TGI [18]: > 100 µM
- TGI [19]: > 100 µM
- TGI [20]: > 100 µM
- TGI [21]: > 100 µM
- TGI [22]: > 100 µM
- TGI [23]: > 100 µM
- TGI [24]: > 100 µM
- TGI [25]: > 100 µM
- TGI [26]: > 100 µM
- TGI [27]: > 100 µM
- TGI [28]: > 100 µM
- TGI [29]: > 100 µM
- TGI [30]: > 100 µM
- TGI [31]: > 100 µM
- TGI [32]: > 100 µM
- TGI [33]: > 100 µM
- TGI [34]: > 100 µM
- TGI [35]: > 100 µM
- TGI [36]: > 100 µM
- TGI [37]: > 100 µM
- TGI [38]: > 100 µM
- TGI [39]: > 100 µM
- TGI [40]: > 100 µM
- TGI [41]: > 100 µM
- TGI [42]: > 100 µM
- TGI [43]: > 100 µM
- TGI [44]: > 100 µM
- TGI [45]: > 100 µM
- TGI [46]: > 100 µM
- TGI [47]: > 100 µM
- TGI [48]: > 100 µM
- TGI [49]: > 100 µM

SMILES: C[n+]1c2ccccc2n2c3ccccc3c(NCCCN3CCOCC3)c(C#N)c21
- TGI [50]: > 100 µM
- TGI [1]: 3.96 µM
- TGI [3]: 23.8 µM
- TGI [4]: > 26.3 µM
- TGI [5]: 6.2 µM
- TGI [6]: > 25.5 µM
- TGI [7]: 15.1 µM
- TGI [9]: > 76.8 µM
- TGI [10]: > 20.4 µM
- TGI [51]: 13.8 µM
- TGI [11]: > 100 µM
- TGI [12]: 4.94 µM
- TGI [13]: 2.64 µM
- TGI [14]: > 28.4 µM
- TGI [15]: 2.75 µM
- TGI [16]: 3.91 µM
- TGI [17]: 19.4 µM
- TGI [18]: 3.57 µM
- TGI [19]: 5.61 µM
- TGI [20]: 8.32 µM
- TGI [21]: 8.08 µM
- TGI [22]: 14.8 µM
- TGI [52]: > 100 µM
- TGI [23]: 6.42 µM
- TGI [24]: 6.44 µM
- TGI [25]: 15.8 µM
- TGI [26]: > 29 µM
- TGI [28]: > 100 µM
- TGI [29]: 8.38 µM
- TGI [53]: 6.47 µM
- TGI [30]: 2.25 µM
- TGI [31]: 3 µM
- TGI [32]: 5.4 µM
- TGI [33]: 10.8 µM
- TGI [34]: > 26.8 µM
- TGI [35]: > 30 µM
- TGI [36]: 16.7 µM
- TGI [54]: > 100 µM
- TGI [37]: 3.15 µM
- TGI [38]: 2.9 µM
- TGI [39]: 8.32 µM
- TGI [55]: 18.2 µM
- TGI [40]: 36.6 µM
- TGI [56]: > 100 µM
- TGI [41]: 5.39 µM
- TGI [42]: > 33.5 µM
- TGI [43]: > 28.1 µM
- TGI [45]: 31.9 µM
- TGI [57]: 9.87 µM
- TGI [46]: 8.81 µM
- TGI [47]: 15.3 µM
- TGI [48]: 14.1 µM
- TGI [49]: 2.85 µM

SMILES: CCCC(=O)N(C(=O)CCC)C1=C(Cl)C(=O)c2ccccc2C1=O
- TGI [50]: 45 µM
- TGI [3]: > 52.8 µM
- TGI [4]: > 100 µM
- TGI [5]: 23.8 µM
- TGI [6]: 2.71 µM
- TGI [7]: > 42.5 µM
- TGI [8]: 25.3 µM
- TGI [9]: 61.3 µM
- TGI [10]: 13.6 µM
- TGI [51]: 11.1 µM
- TGI [11]: 10.3 µM
- TGI [12]: > 67.5 µM
- TGI [13]: 17.8 µM
- TGI [14]: 23.5 µM
- TGI [15]: 29.3 µM
- TGI [16]: 7.1 µM
- TGI [17]: 14.2 µM
- TGI [18]: 15.4 µM
- TGI [19]: 26 µM
- TGI [20]: > 33.1 µM
- TGI [21]: 15.8 µM
- TGI [22]: 33.3 µM
- TGI [52]: 31.2 µM
- TGI [23]: 24 µM
- TGI [58]: 5.01 µM
- TGI [24]: 52.5 µM
- TGI [59]: 10.7 µM
- TGI [25]: 15.5 µM
- TGI [26]: 37.6 µM
- TGI [27]: 20.9 µM
- TGI [28]: > 26.7 µM
- TGI [29]: 5.79 µM
- TGI [53]: 79.7 µM
- TGI [31]: 16.4 µM
- TGI [32]: 15.3 µM
- TGI [33]: 14.8 µM
- TGI [34]: 24.4 µM
- TGI [35]: 40 µM
- TGI [36]: 11.6 µM
- TGI [54]: > 54.1 µM
- TGI [37]: > 23.3 µM
- TGI [38]: 28.2 µM
- TGI [39]: 30.8 µM
- TGI [55]: 45.1 µM
- TGI [40]: 14.5 µM
- TGI [41]: > 45.2 µM
- TGI [42]: 24.1 µM
- TGI [43]: 11.8 µM
- TGI [45]: 34.4 µM
- TGI [57]: > 23.9 µM
- TGI [46]: 82.8 µM
- TGI [47]: 4.75 µM
- TGI [48]: 21.4 µM
- TGI [49]: 25.8 µM
